{"source": "patent US4224343A", "about": "“Process and composition for decreasing blood serum prolactin levels” (Massachusetts Institute of Technology, priority 1979, dated 1980)", "key": {"[1]": {"tested_on": "Norepinephrine synthesis and turnover in brain neurons", "experiment": "Brain tyrosine and MOPEG-SO4 in rats exposed to cold (4° C.) after amino acid injection (FIG. 1)", "source_text": "(§1) Male Sprague-Dawley rats (Charles River Breeding Laboratories, Wilmington, MA) weighing 150 g were housed in hanging cages (6-8 per cage), given ad libitum access to tap water and a 26% protein diet (Charles River Rat-Mouse-Hamster Maintenance Formula 24RF), and maintained under light (300 microwatts/cm^2; Vita-Lite, Duro-Test Corp., North Bergen, N.J.) between 8 AM and 8 PM daily. Rats used for diet experiments were fasted overnight and then allowed to consume the experimental diet starting at 10 AM. Diets of different compositions were prepared in agar gel ([…] of water) as described by Gibson et al., Biochem. Pharmacol., 26, 1137-1142 (1977). All amino acids and drugs were injected intraperitoneally.\n(§2) Norepinephrine synthesis and turnover in brain neurons were estimated by measuring the rate of accumulation of MOPEG-SO4 after probenecid administration or exposure to a cold environment. […] An aliquot of each homogenate (in 0.15 M ZnSO4) was first assayed for tyrosine by the method of Waalkes and Undenfriend, J. Lab. Clin. Med., 50, 733-736 (1957). An equal volume of 0.15 M barium hydroxide was then added to the remaining homogenate, which was rehomogenized (Polytron, Brinkman Instruments, N.Y.), centrifuged and assayed for MOPEG-SO4 by the method of Meek and Neff above.\nIn experiments on stress produced by exposure to cold, animals received the more soluble ethyl-ester form of tyrosine (J. T. Baker, Phillipsburg, N.J.), instead of tyrosine itself, to raise brain tyrosine levels. Data were analyzed by one-way or two-way analysis of variance.\nPlacing the rats in a cold environment (4° C.) increases norepinephrine turnover; this accelerates the formation of both norepinephrine itself and its metabolite, MOPEG-SO4, in brain neurons. The rats were exposed to cold to determine whether treatments that changed brain tyrosine levels could influence the rate at which the brain accumulates MOPEG-SO4 in rats exposed to cold stress and not given probenecid (FIG. 1).\nThe relationship shown in FIG. 1 was obtained as follows: Groups of rats were injected intraperitoneally with valine (200 mg/kg), an amino acid that competes with tyrosine for uptake into the brain (8), or with tyrosine (125 mg/kg of the ethyl ester) or saline; 30 min. later they were placed in single cages in a cold (4° C.) environment. After 1 hr., all animals were killed, and their whole brains were analyzed for tyrosine and MOPEG-SO4. Control animals were injected with saline and left at room temperature (22° C.), also in a single cages, for 90 min. Each point represents the tyrosine and MOPEG-SO4 levels present in a single brain. Data were pooled from several experiments. […] In FIG. 1, the symbols are as follows: closed circles, animals pretreated with valine; open circles, animals pretreated with saline; closed squares, animals pretreated with tyrosine."}, "brain dopamine release": {"tested_on": "brain dopamine release", "experiment": "Accumulation of HVA in corpora striata of rats given haloperidol or probenecid after tyrosine (FIG. 2)", "conditions": "for striatal HVA concentration: tyrosine 100 mg/kg or diluent, 20 min later haloperidol 2 mg/kg or probenecid 200 mg/kg i.p., sacrificed 70 min after second injection, corpora striata", "method": "Male, 150 to 200 g Sprague-Dawley rats (Charles River Breeding Laboratories, Wilmington, MA) were exposed to light (Vita-Lite, Duro-Test Co., North Bergen, N.J.) between 9 AM and 9 PM daily and allowed access to Big Red Rat Chow (Charles River Breeding Laboratories) and water ad limitum. Drugs were injected intraperitoneally at a volume of 2 ml/kg body weight. […] Control animals received the appropriate diluents. […] Brains were quickly removed, and the striata were dissected out (Glowinski and Iverson, 1966), frozen on dry ice, and subsequently assayed for HVA. Tyrosine was assayed in homogenates of the remaining brain (Waalkes and Udenfriend, 1957)."}, "[2]": {"biological_target": "T1, Striatal Tyrosine Hydroxylase (Rattus norvegicus, UniProt P04177)", "T1 construct": "10,000 g supernatant of Triton X-100 homogenate of rat corpus striatum", "T1 sequence (P04177 whole entry)": "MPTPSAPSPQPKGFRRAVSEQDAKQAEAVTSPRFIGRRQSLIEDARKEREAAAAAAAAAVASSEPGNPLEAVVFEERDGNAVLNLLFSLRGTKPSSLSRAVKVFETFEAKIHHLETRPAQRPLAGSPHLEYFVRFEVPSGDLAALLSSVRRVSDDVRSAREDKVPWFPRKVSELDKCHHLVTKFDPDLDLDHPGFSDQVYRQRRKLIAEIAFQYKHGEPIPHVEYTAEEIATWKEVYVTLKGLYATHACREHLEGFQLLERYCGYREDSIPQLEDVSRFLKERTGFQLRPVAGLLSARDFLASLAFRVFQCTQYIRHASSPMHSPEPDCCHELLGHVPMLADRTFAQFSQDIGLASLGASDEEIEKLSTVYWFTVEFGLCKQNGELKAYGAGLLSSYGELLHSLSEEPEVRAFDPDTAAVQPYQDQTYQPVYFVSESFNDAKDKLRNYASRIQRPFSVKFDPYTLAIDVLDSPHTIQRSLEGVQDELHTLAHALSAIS", "experiment": "Kms of striatal tyrosine hydroxylase after in vivo pretreatment", "format": "biochemical", "conditions": "for Km: striatal homogenate of treated rats", "description": "Corpora striata were homogenized in 10 volumes of 0.05 M Tris-acetate buffer (pH 6.0), containing 0.2 percent Triton X-100 (Harleco, Philadelphia, PA). The homogenates were centrifuged for 10 min. at 10,000 g, and the supernatant fluids were collected for assay (Coye, 1972). The assay medium contained, in a total volume of 110 μl: 50 μl of a supernatant fluid; 65 nmoles of DMPH4 (2-amino-4-hydroxy-6,7-dimethyl-5,6,7,8-tetrahydropteridine hydrochloride [synthetic cofactor obtained from Calbiochem, San Diego, CA]); 29 nanomoles of pyridoxal phosphate; 4 nanomoles of 2-mercaptoethanol; 240 units of catalase; 0.01 millimoles phosphate buffer (pH 6.2); and 10 μl of aromatic L-amino acid decarboxylase prepared from hog kidneys (Coyle, 1972). Samples were preincubated for 2 min. at 27° C.\nThe assay was stopped by the addition of 0.5 ml of 10 percent trichloroacetic acid. The acidified medium was then shaken for 2 hours to recover the ^14 CO2, which was trapped by folded filter paper strips placed in 0.2 ml of NCS tissue solubilizer (Amersham/Searle, Arlington Heights, IL). The strips were then transferred to scintillation vials containing 10 ml of Aquasol (New England Nuclear, Boston, MA), and their radioactivity was counted."}, "[3]": {"tested_on": "Norepinephrine synthesis and turnover in brain neurons", "experiment": "Accumulation of brain MOPEG-SO4 after probenecid administration and pretreatment with tyrosine", "conditions": "for Brain MOPEG-SO4 Level / Brain Tyrosine Level: killed 60 min after second injection, whole brain, mean ± SEM; for effect on brain MOPEG-SO4: substance given alone, versus diluent; for effect on brain tyrosine levels: tyrosine 100 mg/kg i.p., probenecid 400 mg/kg, two-way analysis of variance", "source_text": "as §1, §2\nTyrosine (Grand Island Biological Co., Long Island, N.Y.) and probenecid (Sigma Chemical Co., St. Louis, MO), which are poorly soluble in water, were dissolved in dilute NaOH; the solutions were then buffered to pH 7.4 with hydrochloric acid and brought to a known volume with saline. This yielded a fine suspension that was suitable for injection.\nIn each of 3 experiments, groups of 4-6 rats were injected with either a\ndose of tyrosine (100 mg/kg, i.p.) known to accelerate brain dopa\nsynthesis or its diluent and, 30 min. later, with probenecid (400 mg/kg,\n[…].) or its diluent. Animals were killed 60 min. after the second\ninjection, and their whole brains were analyzed for tyrosine and […]"}, "Serum Prolactin": {"tested_on": "Serum Prolactin", "experiment": "Serum prolactin by radioimmunoassay in reserpine-treated rats", "format": "in vivo, rat", "method": "Groups of 4 male rats received reserpine (2.5 mg/kg/day, divided into two equal doses each day) intraperitoneally for four days. On day 5, in the morning, no reserpine was administered, but instead half of the animals received tyrosine (200 mg/kg) or the vehicle (saline), and were killed two hours later. Sera were collected and assayed by radioimmunoassay for prolactin."}, "[4]": {"conditions": "pretreatment (tyrosine 100 mg/kg i.p. or diluent), 30 min later probenecid 400 mg/kg"}, "[5]": {"conditions": "pretreatment tyrosine 100 mg/kg i.p., 30 min later diluent"}, "[6]": {"conditions": "tyrosine 125 mg/kg of the ethyl ester i.p., cold (4° C.) 1 hr"}}, "note": "Several values for one entry are separate records, joined by “and”; a condition that tells them apart may be missing. Identical values can stand only once. Like-named read-outs stand apart in the source and are kept apart here."}
{"smiles": "CC(C)[C@H](N)C(=O)O", "note": "[valine, reference compound]", "values": [{"measurement": "effect on brain tyrosine or MOPEG-SO4 levels", "setting": "[1]; valine 200 mg/kg i.p., cold (4° C.) 1 hr", "result": "failed, in this study, to cause significant alterations"}]}
{"smiles": "O=C(CCCN1CCC(O)(c2ccc(Cl)cc2)CC1)c1ccc(F)cc1", "note": "[Haloperidol, haloperidol]", "values": [{"measurement": "striatal HVA concentration", "setting": "brain dopamine release", "result": "2.00 ± 0.10", "unit": "µg/g"}, {"measurement": "Km", "setting": "[2]; DMPH4 concentrations 0.1 to 0.5 mM, read-out: Km for DMPH4", "result": "130 ± 10", "unit": "µM"}, {"measurement": "Km", "setting": "[2]; tyrosine concentrations 0.125-1.0 mM, read-out: Km for tyrosine", "result": "48.1 ± 1.9", "unit": "µM"}]}
{"smiles": "CCCN(CCC)S(=O)(=O)c1ccc(C(=O)O)cc1", "note": "[Probenecid, probenecid, reference compound]", "values": [{"measurement": "striatal HVA concentration", "setting": "brain dopamine release", "result": "1.30 ± 0.10", "unit": "µg/g"}, {"measurement": "Brain MOPEG-SO4 Level", "setting": "[3]; [4]", "result": "175 ng/g and 175 ± 6 ng/g"}, {"measurement": "effect on brain MOPEG-SO4", "setting": "[3]", "result": "significantly raised"}, {"measurement": "effect on brain tyrosine levels", "setting": "[3]", "result": "failed to modify"}]}
{"smiles": "N[C@@H](Cc1ccc(O)cc1)C(=O)O", "note": "[Tyrosine, tyrosine]", "values": [{"measurement": "potentiation of the accumulation of HVA in striata of haloperidol-treated rats", "setting": "brain dopamine release; tyrosine 100 mg/kg 20 min before haloperidol 2 mg/kg", "result": 59, "unit": "%"}, {"measurement": "effect on HVA levels in animals given probenecid", "setting": "brain dopamine release; tyrosine 100 mg/kg 20 min before probenecid 200 mg/kg", "result": "failed"}, {"measurement": "Serum Prolactin", "setting": "Serum Prolactin; male rats, reserpine […] i.p. for four days, day 5 tyrosine 200 mg/kg, killed two hours later, mean ± standard error", "result": "44 ± 2", "unit": "ng/mL"}, {"measurement": "effect on serum prolactin levels", "setting": "Serum Prolactin; reserpine-pretreated rats, tyrosine 200 mg/kg", "result": "lowers serum prolactin levels"}, {"measurement": "Brain MOPEG-SO4 Level", "setting": "[3]; [4]", "result": "203 ng/g and 203 ± 8 ng/g"}, {"measurement": "Brain Tyrosine Level", "setting": "[3]; [4]", "result": "24.7 ± 1.3", "unit": "µg/g"}, {"measurement": "Brain MOPEG-SO4 Level", "setting": "[3]; [5]", "result": "127 ± 2", "unit": "ng/g"}, {"measurement": "Brain Tyrosine Level", "setting": "[3]; [5]", "result": "23.3 ± 1.5", "unit": "µg/g"}, {"measurement": "effect on brain MOPEG-SO4", "setting": "[3]", "result": "no effect"}, {"measurement": "effect of tyrosine pretreatment on the probenecid-induced rise in MOPEG-SO4", "setting": "[3]; tyrosine 100 mg/kg i.p. 30 min before probenecid 400 mg/kg", "result": "significantly enhanced"}, {"measurement": "effect on brain tyrosine levels", "setting": "[3]", "result": "significantly raised"}, {"measurement": "brain tyrosine levels", "setting": "[1]; i.p. injection (tyrosine 125 mg/kg of the ethyl ester; valine 200 mg/kg) 30 min before 1 hr in cold (4° C.), whole brain", "result": 24.6, "unit": "µg/g"}, {"measurement": "brain MOPEG-SO4 levels", "setting": "[1]; tyrosine 125 mg/kg of the ethyl ester i.p. 30 min before 1 hr in cold (4° C.), whole brain", "result": 193, "unit": "ng/g"}, {"measurement": "rise in brain MOPEG-SO4 versus saline-injected animals", "setting": "[1]; [6]", "result": 70, "unit": "%"}, {"measurement": "rise in brain tyrosine levels versus saline-injected animals", "setting": "[1]; [6]", "result": "about 80%"}, {"measurement": "effect of prior administration on the Kms of tyrosine hydroxylase for tyrosine or DMPH4 in vitro", "setting": "[2]; tyrosine 100 mg/kg in vivo", "result": "failed to affect"}]}
